Source: paper PMC4788259 (PLoS Neglected Tropical Diseases, 2016)

System: E. multilocularis metacestodes
Experiment: PGI assay: phosphoglucose isomerase release from damaged metacestodes
Format: cell-based, Echinococcus multilocularis
Settings: 10 μM, 5 days, single wells, relative to DB1127 (10 μM)
How it was run: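 Damage readout: PGI enzyme release after 5-day in vitro culture of 2–4 mm metacestode vesicles (H95 strain, from i.p.-infected BALB/c mice) with compound. Primary screen: 10 μM per single well, 0.1% DMSO negative control. EC50 calculated from PGI release data.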

c1ccc(-c2ccc(-c3nc4ccccc4[nH]3)cc2)cc1 [MMV665891]
PGI (% of DB1127 at 10 uM): -89.45%

CC(=O)c1sc(NC(=O)Nc2ccc(C)cc2C)nc1C [MMV665894]
PGI (% of DB1127 at 10 uM): -2.69%

COc1ccc2nc(N)nc(C)c2c1 [MMV665897]
PGI (% of DB1127 at 10 uM): -26.21%

COc1cc(C(=O)Nc2ccc(-c3nc4ccccc4[nH]3)cc2)cc(OC)c1OC [MMV665898]
PGI (% of DB1127 at 10 uM): -11.03%

O=C(c1ccccc1F)N(Cc1ccc(Cl)cc1)c1ccccn1 [MMV665899]
PGI (% of DB1127 at 10 uM): -103.42%

O=C(Nc1ccc(CN2CCOCC2)cc1)c1ccc(-c2ccc(Br)cc2)o1 [MMV665901]
PGI (% of DB1127 at 10 uM): -20.18%

Cl.N=c1n(CCN2CCCCC2)c2ccccc2n1CC(O)c1cccc(Br)c1 (stereo not drawn) [MMV665902]
PGI (% of DB1127 at 10 uM): -8.42%

COCCn1c(C)nc2ccccc2c1=O [MMV665904]
PGI (% of DB1127 at 10 uM): -26.17%

Cc1ccc(-c2cc(C(=O)Nc3ccc(S(=O)(=O)N4CCCCC4)cc3)[nH]n2)c(O)c1 [MMV665906]
PGI (% of DB1127 at 10 uM): -8.23%

COc1ccc(N2CCN(C(CNC(=O)CC(C)(C)C)c3ccc4c(c3)OCO4)CC2)cc1 (stereo not drawn) [MMV665908]
PGI (% of DB1127 at 10 uM): -6.01%

O=C(Nc1nc(-c2ccccn2)cs1)c1ccccc1Br [MMV665909]
PGI (% of DB1127 at 10 uM): -125.86%

CCOc1ccc(-c2nc(NC(=O)c3cccc(S(C)(=O)=O)c3)sc2C)cc1 [MMV665913]
PGI (% of DB1127 at 10 uM): -25.30%

COc1ccccc1N1CCN(C(CNS(=O)(=O)c2ccc(Cl)cc2)c2cccnc2)CC1 (stereo not drawn) [MMV665914]
PGI (% of DB1127 at 10 uM): 1.92%

COc1ccc(-c2nc(NC(=O)CS(=O)(=O)c3ccc(F)cc3)sc2C)cc1 [MMV665915]
PGI (% of DB1127 at 10 uM): -67.15%

COc1ccccc1CNC(=O)CCn1c(=O)[nH]c2ccccc2c1=O [MMV665916]
PGI (% of DB1127 at 10 uM): -47.23%

O=C(Nc1ccc(Cl)cc1)N1CCN(c2ccc3nncn3n2)CC1 [MMV665917]
PGI (% of DB1127 at 10 uM): -87.17%

O=C(CSc1ccc2nnc(-c3cccc(F)c3)n2n1)Nc1ccc2c(c1)OCO2 [MMV665918]
PGI (% of DB1127 at 10 uM): -24.34%

N=c1c2ccccc2nnn1-c1cccc(C(F)(F)F)c1 [MMV665923]
PGI (% of DB1127 at 10 uM): 18.29%

COc1ccc(C(=O)C2CC2c2ccc(Cl)cc2)cc1 (stereo not drawn) [MMV665924]
PGI (% of DB1127 at 10 uM): -13.71%

O=C(CCl)NCCOc1ccc(Cl)cc1Cl [MMV665927]
PGI (% of DB1127 at 10 uM): 24.95%

CCC(C)NCC(O)(c1ccc(Cl)cc1)c1ccc(Cl)cc1 (stereo not drawn) [MMV665928]
PGI (% of DB1127 at 10 uM): -109.93%

CCCCNCC(O)(c1ccc(Cl)cc1)c1ccc(Cl)cc1 [MMV665929]
PGI (% of DB1127 at 10 uM): -0.59%

O=C1c2ccccc2-c2nnc(-c3ccc(Br)cc3)cc21 [MMV665934]
PGI (% of DB1127 at 10 uM): -7.23%

FC(F)(F)c1ccc(Nc2nnnc3ccccc23)cc1 [MMV665935]
PGI (% of DB1127 at 10 uM): -27.43%

Cc1ccc(S(=O)(=O)c2c(COC(=O)c3cccc(C)c3)c(-c3ccccc3)nn2C)cc1 [MMV665936]
PGI (% of DB1127 at 10 uM): -18.54%

O=C(Nc1ccsc1C(=O)NC1CCCCC1)c1ccc(F)cc1 [MMV665939]
PGI (% of DB1127 at 10 uM): -15.17%

CCOc1ccc(/C=C/c2nc(=O)c3ccccc3o2)cc1 [MMV665940]
PGI (% of DB1127 at 10 uM): -92.49%

Nc1ccc(-c2nc3cc(Cc4ccc5[nH]c(-c6ccc(N)cc6)nc5c4)ccc3[nH]2)cc1 [MMV665943]
PGI (% of DB1127 at 10 uM): 9.49%

COc1ccc(CN2CCN(Cc3ccccc3)CC2)c(O)c1 [MMV665944]
PGI (% of DB1127 at 10 uM): -7.26%

CC(C)=CCN1CCC(C(=O)Nc2ccc(-c3nc4ccccc4[nH]3)cc2)CC1 [MMV665946]
PGI (% of DB1127 at 10 uM): -26.45%

O=C(Nc1ccccc1O)c1ccc(-c2ccc(Cl)cc2Cl)o1 [MMV665948]
PGI (% of DB1127 at 10 uM): -40.46%

Oc1ccc(C(=C(Cl)Cl)c2ccc(O)cc2)cc1 [MMV665949]
PGI (% of DB1127 at 10 uM): 8.99%

O=C(Nc1ccc(F)c(Cl)c1)Nc1ccc(Cl)c(Cl)c1 [MMV665953]
PGI (% of DB1127 at 10 uM): 213.83%

O=C(NCC1Cc2cccc(-c3ccncc3)c2O1)c1csc2c1CCCC2 (stereo not drawn) [MMV665954]
PGI (% of DB1127 at 10 uM): -10.62%

CCN(CC)CCCNc1nc(-c2ccc(Cl)cc2)nc2ccccc12 [MMV665961]
PGI (% of DB1127 at 10 uM): -34.32%

COc1cccc(C(=O)NC(c2ccc(C)cc2)c2cc(Cl)c3cccnc3c2O)c1 (stereo not drawn) [MMV665969]
PGI (% of DB1127 at 10 uM): -25.94%

CCOC(=O)C1=C(C)N=c2sc(=Cc3cc(Cl)ccc3O)c(=O)n2C1c1ccc(OC)cc1 (stereo not drawn) [MMV665971]
PGI (% of DB1127 at 10 uM): -11.30%

O=C(Cc1ccccc1)NC(c1ccc(Cl)cc1)c1c(O)ccc2ccccc12 (stereo not drawn) [MMV665972]
PGI (% of DB1127 at 10 uM): 15.67%

CCOC(=O)c1cn(CC)c2cc(N(C)CCc3ccc(OC)c(OC)c3)c(F)cc2c1=O [MMV665977]
PGI (% of DB1127 at 10 uM): -67.06%

FC(F)(F)c1cccc(CNC2CCN(CCc3ccccc3)CC2)c1 [MMV665979]
PGI (% of DB1127 at 10 uM): -152.47%

OC1CCCCC1C1(NC(=S)Nc2ccccc2)CCCCC1 (stereo not drawn) [MMV665980]
PGI (% of DB1127 at 10 uM): -9.51%

CCCCCCc1cc(O)c2c3c(c(=O)oc2c1)CCC(C)C3 (stereo not drawn) [MMV665987]
PGI (% of DB1127 at 10 uM): 4.36%

Cc1nc2ccccc2c(O)c1CC=C(Cl)Cl [MMV665994]
PGI (% of DB1127 at 10 uM): 45.96%

CN1c2ccccc2N(C)C1c1ccc2c(c1)OCO2 [MMV666009]
PGI (% of DB1127 at 10 uM): -36.57%

Cc1ccc(OCCCCCCNCCO)c(C)c1 [MMV666020]
PGI (% of DB1127 at 10 uM): 2.96%

Cc1ccc(-c2cc3c(nn2)-c2ccccc2C3=O)cc1 [MMV666021]
PGI (% of DB1127 at 10 uM): -22.93%

COc1ccc(C(=O)NC(c2ccccc2Cl)c2cc(Cl)c3cccnc3c2O)cc1 (stereo not drawn) [MMV666022]
PGI (% of DB1127 at 10 uM): 259.47%

c1ccc(Cn2c(N=Nc3c(Nc4ccccc4)ccc4ccccc34)nc3ccccc32)cc1 [MMV666023]
PGI (% of DB1127 at 10 uM): -50.58%

OC(Cn1nnc2ccccc21)Cn1c2ccc(Br)cc2c2cc(Br)ccc21 (stereo not drawn) [MMV666025]
PGI (% of DB1127 at 10 uM): 1.46%

COc1ccc(-c2cc3c(nn2)-c2ccccc2C3=O)cc1 [MMV666026]
PGI (% of DB1127 at 10 uM): -10.04%

COc1ccc(C(=O)NC(c2ccc(Cl)cc2Cl)c2cc(Cl)c3cccnc3c2O)cc1 (stereo not drawn) [MMV666054]
PGI (% of DB1127 at 10 uM): 1.08%

O=C(Nc1ccc(Cl)cc1C(=O)Nc1ccncc1)c1ccc(Cl)cc1Cl [MMV666057]
PGI (% of DB1127 at 10 uM): -78.23%

COc1ccc(CN2CCCC(C(=O)c3ccc(C(F)(F)F)cc3)C2)c(O)c1 (stereo not drawn) [MMV666060]
PGI (% of DB1127 at 10 uM): -1.92%

COc1cccc(O)c1CN1CCC2(CCCN(Cc3ccc(F)cc3)C2)C1 (stereo not drawn) [MMV666061]
PGI (% of DB1127 at 10 uM): -20.69%

Cc1ccc(N2C(=O)C3C(C2=O)C2(c4ccccc4)C(=O)C3(c3ccccc3)C(c3ccccc3)=C2c2ccccc2)cc1 (stereo not drawn) [MMV666062]
PGI (% of DB1127 at 10 uM): -37.70%

COc1ccc(CNC2CCN(c3ccc(NC(=O)c4cccc(Cl)c4)cc3)CC2)cc1OC [MMV666067]
PGI (% of DB1127 at 10 uM): -35.43%

COc1ccc(CCN2CCC(CN(C)Cc3cnn(-c4ccccc4)c3)CC2)cc1 [MMV666069]
PGI (% of DB1127 at 10 uM): -33.62%

O=C(NC1CCCC1)c1ccc(N2CCC(NCc3cccc(C(F)(F)F)c3)CC2)cc1 [MMV666070]
PGI (% of DB1127 at 10 uM): -8.11%

Cc1ccc(CN2CCC(C(=O)Nc3ccc(-c4cc5ccccc5[nH]4)cc3)CC2)o1 [MMV666071]
PGI (% of DB1127 at 10 uM): -52.95%

COCCNC(=O)c1ccc(OC2CCN(Cc3ccc(F)c(F)c3)CC2)c(Cl)c1 [MMV666072]
PGI (% of DB1127 at 10 uM): -116.21%

COc1ccc(C2N(C)c3ccccc3N2C)cc1 [MMV666075]
PGI (% of DB1127 at 10 uM): 0.50%

Cc1ccc2cc3c(N)c4c(C)ccc(C)c4nc3nc2c1 [MMV666079]
PGI (% of DB1127 at 10 uM): -43.85%

O=C(NC(c1ccccc1)c1ccc2cccnc2c1O)c1ccccc1 (stereo not drawn) [MMV666080]
PGI (% of DB1127 at 10 uM): -67.16%

CCCc1c(C)nc2ccccc2c1O [MMV666081]
PGI (% of DB1127 at 10 uM): -67.20%

CCCC(c1nnnn1C1CCCCC1)N1CCN(C(=O)c2ccco2)CC1.Cl (stereo not drawn) [MMV666093]
PGI (% of DB1127 at 10 uM): -0.54%

CCCc1c(C)nc2ccc(Br)cc2c1O [MMV666095]
PGI (% of DB1127 at 10 uM): -30.45%

COc1ccc(C2=C(c3ccc(OC)cc3)C3(c4ccccc4)C(=O)C2(c2ccccc2)C2C(=O)N(c4ccc(C)cc4)C(=O)C23)cc1 (stereo not drawn) [MMV666101]
PGI (% of DB1127 at 10 uM): -51.33%

CN(C)c1ccc(-c2nc3ccc(N)cc3[nH]2)cc1 [MMV666102]
PGI (% of DB1127 at 10 uM): -14.14%

CCn1c(SCC(=O)Nc2cc(C(F)(F)F)ccc2Cl)nc2ccccc2c1=O [MMV666103]
PGI (% of DB1127 at 10 uM): -111.41%

COCCN(C(=O)Cc1cccs1)C(C(=O)NCc1ccc(OC)cc1)c1ccc(C(C)C)cc1 (stereo not drawn) [MMV666105]
PGI (% of DB1127 at 10 uM): -124.48%

O=C(NC1CCCCC1)C(c1cccs1)N(CCc1ccccc1)C(=O)c1ccco1 (stereo not drawn) [MMV666106]
PGI (% of DB1127 at 10 uM): 2.06%

O=C(CCc1ccco1)NC1CCN(CC2(c3ccc(Cl)cc3)CCC2)CC1 [MMV666108]
PGI (% of DB1127 at 10 uM): -18.89%

CCOC(=O)C1(Cc2ccccc2)CCN(Cc2cccc(OC)c2O)CC1 [MMV666109]
PGI (% of DB1127 at 10 uM): -8.56%

C=C(C)CCC(C)N1CCC(N2CCC(C(=O)NCCc3ccccc3)CC2)CC1 (stereo not drawn) [MMV666110]
PGI (% of DB1127 at 10 uM): -25.44%

Oc1ccccc1CN1CCC2(CCCN(Cc3ccccc3F)C2)C1 (stereo not drawn) [MMV666116]
PGI (% of DB1127 at 10 uM): -7.59%

CC(C)(C)c1ccc(C(=O)Nc2c3c(nn2-c2cccc(Cl)c2)CSC3)cc1 [MMV666123]
PGI (% of DB1127 at 10 uM): -7.56%

CC(=O)c1ccc(NC(=O)CSc2nc(-c3ccccc3Cl)ns2)cc1 [MMV666124]
PGI (% of DB1127 at 10 uM): -5.85%

CC1=C(CC(=O)c2cccc([N+](=O)[O-])c2)C(=O)c2ccccc2C1=O [MMV666125]
PGI (% of DB1127 at 10 uM): -2.81%

CSC1=NC(=Nc2c(C)cccc2C)C2(CCC(C(C)(C)C)CC2)N1c1ccc(Cl)cc1 (stereo not drawn) [MMV666596]
PGI (% of DB1127 at 10 uM): -70.72%

CCCCCCc1cc2cc(-c3nc4ccccc4[nH]3)c(=Nc3ccccc3C)oc2cc1O [MMV666597]
PGI (% of DB1127 at 10 uM): -1.88%

O=c1nc(C=Cc2ccc(Br)cc2)oc2ccccc12 [MMV666599]
PGI (% of DB1127 at 10 uM): 22.37%
